According to patent publication US12194027B2, “Small molecule inhibitors of GPCR GPR68 and related receptors for treating cancer, glioblastoma, and other indications” (UNIVERSITY OF MARYLAND, BALTIMORE, priority 2019, dated 2025):

How the values were obtained:
zebrafish embryo [1] = assay: zebrafish embryo phenotype (pigmentation, morphology); assay type: in vivo
158 GPCRs = assay: Millipore GPCR profiling, agonist and antagonist activity; assay type: cell-based; conditions: 10 μM
zebrafish embryo [2] = assay: foxD3 in situ hybridization of neural crest progenitors; conditions: in vivo
Procedure: In situ hybridization was performed as previously described (Westerfield, 2000). Zebrafish foxD3 probes were synthesized as previously described (Stewart et al., 2006).
To identify if neural crest progenitors were perturbed by OGM, foxD3 staining was performed. This identified no difference. […] The views on the right show a magnification of the indicated area, with arrows showing positive staining along the dorsal ridge of the embryo.

A2058 melanoma cell line = assay: scratch assay for migration, A2058; assay type: cell-based, human; conditions: OGM 5 μM, EIPA 10 μM, 20 hours
Procedure: (§1) Cells were grown to confluence and the cells were denuded with a P200 tip. A medium change was done to add fresh medium, remove loose cells and add compounds OGM (5 μM) and EIPA (10 μM). The area of the scratch was observed 20 hours later.
(§2) Since there are numerous parallels are found between neural crest cells and cancer during migration, we examined whether OGM could inhibit the migration of cells in human melanoma cell lines (Oppitz et al., 2007; Schriek et al., 2005; Sinnberg et al., 2018). […] A2058, MeWo and WM115 cells were grown to confluence and a stripe of cells were denuded with a p200 pipette tip “scratch” and rinsed with PBS. Cells were treated with OGM or EIPA, or DMSO and incubated in low serum media. Imaging was done at 30 minutes after “scratch” and then 20 hours afterwards. Areas were then measured and normalized to the initial area.
(§3) Previous studies with the MV3 melanoma cell line have shown that disruption of proton efflux with EIPA inhibition of NHE1 can also reduce melanoma motility (Ludwig et al., 2013; Schneider et al., 2009; Stock et al., 2007, 2005; Stüwe et al., 2007). […] Although the expression of GPR68 and other proton-sensing receptors have been characterized in various skin cancers (Merkel cell carcinoma, dermatofibrosarcoma protuberans, atypical fibroxanthoma, and pleomorphic dermal sarcoma), expression in melanoma cell lines has not investigated (Nassios et al., 2019).

MeWo melanoma cell line = assay: scratch assay for migration, MeWo; assay type: cell-based, human; conditions: OGM 5 μM, EIPA 10 μM, 20 hours
Procedure: as §1, §2, §3

WM115 melanoma cell line = assay: scratch assay for migration, WM115; assay type: cell-based, human; conditions: OGM 5 μM, EIPA 10 μM, 20 hours
Procedure: as §1, §2, §3

WM115 cells = assay: agarose drop assay (3D model of melanoma extravasation); assay type: cell-based, human; conditions: 5 μM, 5 days
Procedure: WM115 cells were trypsinized and resuspended at 100,000 cells per mL in low melt agarose. A 10 μl drop of the cell mixture was added to 12-well plate. After solidifying Normal culture media was added with either DMSO 0.5% or OGM 5 μM. The area around the agarose drop was visualized manually with light microscopy. The cells were incubated for 5 days and visualized. Cells outside of the agarose drop were visualized and quantitated.
FIG. 8A is a schematic of the agarose drop assay. WM115 cells were mixed into a low melt agarose solution and single 10 μL drops were seeded onto cell culture plates. After solidifying, media containing OGM (5 μM) or CTL (DMSO […]) was added and wells were observed 5 days later. Immediately after media addition no cells are on the plate outside of the agarose gel in CTL or OGM. Five days after seeding cells are observed outside of the gel (Black arrows) in CTL but not in OGM. […] Quantification on the number of cells that escaped from an average of 5 gel drop replicates. FIG. 8B through FIG. 8F show the cells after media addition. No cells are on the plate outside of the agarose gel in CTL or OGM. Five days after seeding, cells are observed outside of the gel (arrows) in CTL but not in OGM.

GPR68-GFP = GPR68-GFP (Homo sapiens (Human), UniProt Q15743); assay: SRE-luciferase assay, GPR68-GFP transfected HEK293T; assay type: cell-based; conditions: 10 μM
Procedure: (§4) 12-well plates of cells were transfected with 1 μg DNA using Lipofectamine 3000 with sre:luciferase and either GFP, GPR68-GFP or 336X-GFP. After 3 days, these cells were then lysed, and cell extracts were subjected to Steady-Glo luciferase assay (Promega™) according to the manufacturer's instructions. The results were normalized to cell titer, as determined using Cell Titer-Glo luminescence assay (Promega™).
(§5) Loss of internalization can indicate loss of activity or loss of the ability to internalize through beta-arrestin. […] Compared to GFP controls, GPR68-GFP and 336X-GFP transfected cells had higher levels of activity. (n=3 biological replicates done in triplicate). Furthermore, the activity of the truncation variant was still inhibited by OGM. […]

336X-GFP = 336X-GFP (Homo sapiens (Human), UniProt Q15743); assay: SRE-luciferase assay, 336X-GFP truncation variant transfected HEK293T; assay type: cell-based; conditions: 10 μM
Procedure: as §4
A deletion between amino acid 336 and the beginning of GFP was generated from the MCSV:GPR68-GFP plasmid using the Q5 mutagenesis kit (NEB).
as §5

[3] = test system: U87 glioblastoma cell line; assay: 2D cell viability (cell titer blue), U87; assay type: cell-based; conditions: U87, 72 hours
Procedure: (§6) Temozolomide is the standard of care for glioblastoma but only works on 30% of patients. Temozolomide sensitive U87 (FIG. 17A) and Temozolomide insensitive U138 (FIG. 17B) glioblastoma cell lines were plated in 96-well plates and exposed to increasing doses of either Temozolomide or OGM2. The viability of cells was assayed using cell titer blue after 72 hours, and data was normalized to DMSO vehicle control. See results in FIG. 17.

[4] = test system: U138 glioblastoma cell line; assay: 2D cell viability (cell titer blue), U138; assay type: cell-based; conditions: U138, 72 hours
Procedure: as §6

[5] = test system: U87 glioblastoma cell line; assay: 3D tumor spheroid growth, U87; assay type: cell-based; conditions: U87, 5 days of treatment
Procedure: (§7) Tumor spheroid cultures are a more physiological model of tumor growth than typical 2D cell culture. Temozolomide sensitive U87 (FIG. 18A) and Temozolomide insensitive U138 (FIG. 18B) glioblastoma cell lines were plated in low attachment round bottom 96-well plates and allowed to form tumor spheroids for 3 days (T0). At T0, spheroids were imaged using Lionheart™ (HCS) High-Content Imaging Systems (Biotek™) and then were exposed to increasing doses of either Temozolomide or OGM2. After 5 days of treatment the spheroids were imaged again (T5). The size (area) of the spheroids after 5 days of treatment was quantified, and the average size of the spheroids at T0 is depicted in red.

[6] = test system: U138 glioblastoma cell line; assay: 3D tumor spheroid growth, U138; assay type: cell-based; conditions: U138, 5 days of treatment
Procedure: as §7

U87 cells = assay: clonogenicity of U87 cells (crystal violet); assay type: cell-based; conditions: 0.1-2 uM, 12 days
Procedure: U87 cells were plated at 400 cells per well in a 6-well plate and on the next day were treated with increasing concentrations of OGM2 for 12 days. The doses were 0 uM (DMSO control) 0.1 μM 0.5 uM, 1 uM, 1.5 uM and 2 uM, as labelled. The plate was fixed with formalin and stained with crystal violet.

GPR68-GFP, sequence (Q15743 whole entry): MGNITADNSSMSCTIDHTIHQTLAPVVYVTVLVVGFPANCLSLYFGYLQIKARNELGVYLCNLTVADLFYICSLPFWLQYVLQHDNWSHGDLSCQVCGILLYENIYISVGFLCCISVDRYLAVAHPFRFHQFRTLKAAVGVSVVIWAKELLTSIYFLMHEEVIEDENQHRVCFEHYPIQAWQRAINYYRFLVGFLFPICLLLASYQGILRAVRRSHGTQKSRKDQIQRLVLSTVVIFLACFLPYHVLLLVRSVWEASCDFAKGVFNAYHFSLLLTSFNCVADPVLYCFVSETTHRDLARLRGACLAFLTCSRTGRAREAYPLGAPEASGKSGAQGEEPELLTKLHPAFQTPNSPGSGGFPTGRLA
336X-GFP, sequence (Q15743 1-335): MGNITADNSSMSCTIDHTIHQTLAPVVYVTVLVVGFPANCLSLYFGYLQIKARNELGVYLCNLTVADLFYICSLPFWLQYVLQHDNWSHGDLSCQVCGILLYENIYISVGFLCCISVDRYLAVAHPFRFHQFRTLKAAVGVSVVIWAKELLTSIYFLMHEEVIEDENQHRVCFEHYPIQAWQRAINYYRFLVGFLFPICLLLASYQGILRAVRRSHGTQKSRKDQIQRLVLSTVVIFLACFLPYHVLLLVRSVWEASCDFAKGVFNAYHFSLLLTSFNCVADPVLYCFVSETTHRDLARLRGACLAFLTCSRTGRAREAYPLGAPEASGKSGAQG

SRE-luciferase activity (GPR68-GFP): reduced the level of luciferase activity | SRE-luciferase activity (336X-GFP): reduced the level of luciferase activity
SMILES: CCc1ccc2c(c1)C1(NN=C(c3cccc4ccccc34)S1)C(=O)N2 (stereo not drawn) [OGM, 5-ethyl-5′-naphthalen-1-ylspiro[1H-indole-3,2′-3H-1,3,4-thiadiazole]-2-one]
induced morphological phenotype (zebrafish embryo [1]; OGM 10 uM, 48 hours pf): induced ventral curvature, wavy notochord, shortened body axis, craniofacial defects, and loss of retinal iridophores | time window of pigmentation defect (zebrafish embryo [1]; temporal phenotypic analysis, treatment windows 0-36 hours pf): dependent on treatment during the 12 hours pf-18 hours pf time window | agonist and antagonist activity against 158 GPCRs (158 GPCRs): Only GPR68, LPA1 and GPR14 (UT2R) showed significant activity | foxD3 staining of neural crest progenitors (zebrafish embryo [2]): no difference | migration in scratch assay (A2058 melanoma cell line): inhibited migration | migration in scratch assay (MeWo melanoma cell line): inhibited migration | migration in scratch assay (WM115 melanoma cell line): inhibited migration | migration out of agarose drop (WM115 cells): migrated significantly less | viability versus Temozolomide [3]: more effective than Temozolomide | viability versus Temozolomide [4]: more effective than Temozolomide | spheroid size versus Temozolomide [5]: more effective than Temozolomide | spheroid size versus Temozolomide [6]: more effective than Temozolomide | clonogenicity (U87 cells): Reduces Clonogenicity
